From patent US12043599B2, “Herbicidal compounds” (SYNGENTA PARTICIPATIONS AG, priority 2018, dated 2024)

Experiments:
Format in all cases: in vivo
Details in all cases: 250 g/h, evaluated after 13 days
Avena fatua (AVEFA) [1] = experiment: Post-emergence herbicidal glasshouse test, percentage damage
Outline: (§1)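 Spray: 250 g/h, aqueous acetone/water 50:50 + 0.5% Tween 20; pre-em 1 d after sowing, post-em at 8 d. Glasshouse 24/16 °C, 14 h light, 65% RH, watered twice daily. Read % damage at 13 d, scored 1–5 (5=80-100%).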

[2] = tested on: Alopecurus myosuroides (ALOMY); experiment: as above
Outline: as §1

[3] = tested on: Echinochloa crus-galli (ECHCG); experiment: as above
Outline: as §1

Lolium perenne (LOLPE) [4] = experiment: as above
Outline: as §1

Setaria faberi (SETFA) [5] = experiment: as above
Outline: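 Percentage damage was scored 13 days after treatment on a five-point scale (1=0-19% to 5=80-100%). Treatments were post-emergence sprays on 8-day-old wheat, barley and SETFA plants in a glasshouse (24/16 °C day/night, 14 h light, 65% humidity), using acetone/water 50:50 with 0.5% Tween 20 at the stated rates. Wheat additionally received cloquintocet-mexyl safener at 50 g/ha.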

Avena fatua (AVEFA) [6] = experiment: Pre-emergence herbicidal glasshouse test, percentage damage
Outline: as §1

[7] = tested on: Alopecurus myosuroides (ALOMY); experiment: as above
Outline: as §1

[8] = tested on: Echinochloa crus-galli (ECHCG); experiment: as above
Outline: as §1

Setaria faberi (SETFA) [9] = experiment: as above
Outline: as §1

Lolium perenne (LOLPE) [10] = experiment: as above
Outline: as §1

SMILES | AVEFA POST percentage damage (five point scale) (Avena fatua (AVEFA) [1]) | ALOMY POST percentage damage (five point scale) [2] | ECHCG POST percentage damage (five point scale) [3] | LOLPE POST percentage damage (five point scale) (Lolium perenne (LOLPE) [4]) | SETFA POST percentage damage (five point scale) (Setaria faberi (SETFA) [5]) | AVEFA PRE percentage damage (five point scale) (Avena fatua (AVEFA) [6]) | ALOMY PRE percentage damage (five point scale) [7] | ECHCG PRE percentage damage (five point scale) [8] | SETFA PRE percentage damage (five point scale) (Setaria faberi (SETFA) [9]) | LOLPE PRE percentage damage (five point scale) (Lolium perenne (LOLPE) [10])
CC#Cc1cc(C)c(C2C(=O)CC3(CCN(C(=O)Cc4csc(C(F)F)n4)CC3)CC2=O)c(C)c1 [Compound A194] | 5 (5=80-100%) | 4 (4=60-79%) | 5 (5=80-100%) | 5 (5=80-100%) | 5 (5=80-100%) | 5 (5=80-100%) | 4 (4=60-79%) | 5 (5=80-100%) | 5 (5=80-100%) | 5 (5=80-100%)
CC#Cc1cc(C)c(C2C(=O)CC3(CCN(C(=O)CCn4cccn4)CC3)CC2=O)c(C)c1 [Compound A195] | 5 (5=80-100%) | 5 (5=80-100%) | 5 (5=80-100%) | 5 (5=80-100%) | 5 (5=80-100%) | 5 (5=80-100%) | 4 (4=60-79%) | 2 (2=20-39%) | 5 (5=80-100%) | 5 (5=80-100%)
CC#Cc1cc(C)c(C2C(=O)CC3(CCN(C(=O)Cc4cnc[nH]4)CC3)CC2=O)c(C)c1 [Compound A196] | 5 (5=80-100%) | 5 (5=80-100%) | 5 (5=80-100%) | 5 (5=80-100%) | 5 (5=80-100%) | 4 (4=60-79%) | 3 (3=40-59%) | 5 (5=80-100%) | 5 (5=80-100%) | 5 (5=80-100%)
CC#Cc1cc(C)c(C2C(=O)CC3(CCN(C(=O)COC(F)F)CC3)CC2=O)c(C)c1 [Compound A197, 3-[2-(difluoromethoxy)acetyl]-9-(2,6-dimethyl-4-prop-1-ynyl-phenyl)-3-azaspiro[5.5]undecane-8,10-dione] | 5 (5=80-100%) | 5 (5=80-100%) | 5 (5=80-100%) | 5 (5=80-100%) | 5 (5=80-100%) | 5 (5=80-100%) | 5 (5=80-100%) | 5 (5=80-100%) | 5 (5=80-100%) | 5 (5=80-100%)
CC#Cc1cc(C)c(C2C(=O)CC3(CCN(C(=O)CCC#N)CC3)CC2=O)c(C)c1 [Compound A198, 4-[9-(2,6-dimethyl-4-prop-1-ynyl-phenyl)-8,10-dioxo-3-azaspiro[5.5]undecan-3-yl]-4-oxo-butanenitrile] | 5 (5=80-100%) | 5 (5=80-100%) | 5 (5=80-100%) | 5 (5=80-100%) | 5 (5=80-100%) | 4 (4=60-79%) | 5 (5=80-100%) | 5 (5=80-100%) | 5 (5=80-100%) | 5 (5=80-100%)
CC#Cc1cc(C)c(C2C(=O)CC3(CCN(C(=O)COC(F)(F)F)CC3)CC2=O)c(C)c1 [Compound A199] | 5 (5=80-100%) | 5 (5=80-100%) | 5 (5=80-100%) | 5 (5=80-100%) | 5 (5=80-100%) | 5 (5=80-100%) | 5 (5=80-100%) | 5 (5=80-100%) | 5 (5=80-100%) | 5 (5=80-100%)
CC#Cc1cc(C)c(C2C(=O)CC3(CCN(C(=O)COCCCl)CC3)CC2=O)c(C)c1 [Compound A200] | 5 (5=80-100%) | 5 (5=80-100%) | 5 (5=80-100%) | 5 (5=80-100%) | 5 (5=80-100%) | 4 (4=60-79%) | 5 (5=80-100%) | 5 (5=80-100%) | 5 (5=80-100%) | 5 (5=80-100%)
C=CCOCC(=O)N1CCC2(CC1)CC(=O)C(c1c(C)cc(C#CC)cc1C)C(=O)C2 [Compound A201] | 5 (5=80-100%) | 5 (5=80-100%) | 5 (5=80-100%) | 5 (5=80-100%) | 5 (5=80-100%) | 4 (4=60-79%) | 5 (5=80-100%) | 5 (5=80-100%) | 5 (5=80-100%) | 5 (5=80-100%)
CC#Cc1cc(C)c(C2C(=O)CC3(CCN(C(=O)COC4CC4)CC3)CC2=O)c(C)c1 [Compound A202] | 5 (5=80-100%) | 5 (5=80-100%) | 5 (5=80-100%) | 5 (5=80-100%) | 5 (5=80-100%) | 5 (5=80-100%) | 5 (5=80-100%) | 5 (5=80-100%) | 5 (5=80-100%) | 5 (5=80-100%)
CC#Cc1cc(C)c(C2=C(OC(=O)C3CC3)CC3(CCN(C(=O)C4CC4)CC3)CC2=O)c(C)c1 [Compound P1, [3-(cyclopropanecarbonyl)-9-(2,6-dimethyl-4-prop-1-ynyl-phenyl)-10-oxo-3-azaspiro[5.5]undec-8-en-8-yl] cyclopropanecarboxylate] | 5 (5=80-100%) | 5 (5=80-100%) | 5 (5=80-100%) | 5 (5=80-100%) | 5 (5=80-100%) | 5 (5=80-100%) | 5 (5=80-100%) | 5 (5=80-100%) | 5 (5=80-100%) | 5 (5=80-100%)
CC#Cc1cc(C)c(C2=C(OC(=O)c3ccccc3)CC3(CCN(C(=O)c4ccccc4)CC3)CC2=O)c(C)c1 [Compound P2] | 5 (5=80-100%) | 5 (5=80-100%) | 5 (5=80-100%) | 5 (5=80-100%) | 5 (5=80-100%) | 5 (5=80-100%) | 5 (5=80-100%) | 5 (5=80-100%) | 5 (5=80-100%) | 5 (5=80-100%)
